Target: T1, RORc (Homo sapiens, UniProt P51449)
T1 sequence (P51449 269-508 limits assumed): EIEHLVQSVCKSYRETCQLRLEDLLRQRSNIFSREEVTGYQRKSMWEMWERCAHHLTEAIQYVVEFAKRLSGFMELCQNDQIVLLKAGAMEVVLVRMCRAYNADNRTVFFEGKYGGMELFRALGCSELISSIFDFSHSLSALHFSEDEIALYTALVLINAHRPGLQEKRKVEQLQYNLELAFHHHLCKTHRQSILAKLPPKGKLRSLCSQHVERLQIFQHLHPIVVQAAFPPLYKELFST
Experiment: In vitro RORc ligand binding assay (25-[3H]hydroxycholesterol displacement)
Conditions: IC50, IC50 values for RORc; unit inferred
Procedure: This assay was used to determine a compound's potency in inhibiting activity of RORc by determining, Kiapp, IC50, or percent inhibition values.
On day of the assay, 100 uL of 0.05% CHAPS (in deionized H2O) was added to all wells of the GFB Unifilter plate and allowed soak for 1 h. A wash buffer of 50 mM HEPES (pH 7.4), 150 mM NaCl, and 5 mM MgCl2 was prepared to wash the filter plate. To prepare an assay buffer, BSA was added to the wash buffer to reach 0.01% and DTT was added to reach 1 mM.
The 20× compound stocks were diluted in DMSO with Assay Buffer 4-fold to reach 5× the final test concentration in 25% DMSO (10 uL compound+30 uL Assay Buffer). Solutions were mixed by aspiration several times with a pipette set on 50 uL volume. For the assay, 10 uL of 5× compound stock solutions in 25% DMSO were added to the assay plate in duplicate.
For two point screening, 10 mM stock compound solutions were diluted in DMSO to obtain 200 uM (20× the high test concentration) and then diluted 10-fold further to reach 20 uM (20× the low test concentration). The 20× stocks were diluted 4-fold with Assay Buffer (10 uL compound+30 uL Assay Buffer) to reach 5× the test concentrations (50 uM and 5 uM) and 10 uL were added to two assay plates for the duplicate wells. With each concentration tested on 2 plates, each set of 80 compounds used 4 assay plates (1 uM and 10 uM, with n=2).
For 25-hydroxycholesterol in 25% DMSO/75% Assay Buffer; 10 uL per well was used for NSB samples. Wells for Total Binding and No Receptor sample determination contained 10 uL of 25% DMSO/75% Assay Buffer per well.
Add 20 uL to all wells to reach 6 nM final in the assay.
Stock receptor solution was diluted in assay buffer to obtain 1.5 ug/mL in Assay Buffer. 20 uL was added to all wells. For No R samples, 20 uL Assay Buffer was substituted for receptor solution.
Assay plates were 96-well polypropylene V-bottom plates. 10 uL of 5× compound in 25% DMSO/75% Assay Buffer was added to Test wells. 10 uL of 25% DMSO/75% Assay Buffer was added to Total Binding or No Receptor wells. 10 uL of 5 uM 25-hydroxycholesterol in 25% DMSO/75% Assay Buffer was added to NSB wells. […] 20 uL of 1.5 ug/mL RORc receptor was added to wells (or 40 uL Assay Buffer to No R wells). Following addition to the wells, the plates were incubated 3 h at 25° C.
Using a Packard Filtermate Harvester, the filter plate were washed 4 times following transfer of the incubated samples. Plates were dry-filtered completely (2 h at 50° C. or overnight at room temperature). 50 uL Microscint 0 was added to all wells and read on Topcount protocol Inverted.
For NSB wells, 1 uM 25-hydroxycholesterol was also present.

Row | IC50 | SMILES
1 | 2400 nM | C[C@H]1CC[C@H](c2ccccc2)S(=O)(=O)N1Cc1ccc([C@]2(C(=O)N(C)C)CC[C@H](n3cnnc3)CC2)cc1 [Example 16, 1-[4-((3S,6R)-3-Methyl-1,1-dioxo-6-phenyl-[1,2]thiazinan-2-ylmethyl)-phenyl]-4-[1,2,4]triazol-4-yl-cyclohexanecarboxylic acid dimethylamide]
2 | 360 nM | COC(=O)[C@]1(c2ccc(CN3[C@@H](C)CC[C@H](c4ccccc4)S3(=O)=O)cc2)CC[C@H](n2cnnc2)CC1 [Example 17, 1-[4-((3S,6R)-3-Methyl-1,1-dioxo-6-phenyl-[1,2]thiazinan-2-ylmethyl)-phenyl]-4-[1,2,4]triazol-4-yl-cyclohexanecarboxylic acid methyl ester]
3 | 310 nM | C[C@H]1CC[C@H](c2ccccc2)S(=O)(=O)N1Cc1ccc([C@]2(C#N)CC[C@@H](NC=O)CC2)cc1 [Example 19, N-{4-Cyano-4-[4-((3S,6R)-3-methyl-1,1-dioxo-6-phenyl-[1,2]thiazinan-2-ylmethyl)-phenyl]-cyclohexyl}-formamide]
4 | 110 nM | C[C@H]1CC[C@H](c2ccccc2)S(=O)(=O)N1Cc1ccc([C@]2(C#N)CC[C@@H](n3cnnc3)CC2)cc1F [Example 20, 1-[3-Fluoro-4-((3S,6R)-3-methyl-1,1-dioxo-6-phenyl-[1,2]thiazinan-2-ylmethyl)-phenyl]-4-[1,2,4]triazol-4-yl-cyclohexanecarbonitrile]
5 | 35 nM | C[C@H]1CC[C@H](c2ccccc2)S(=O)(=O)N1Cc1ccc(C2(C#N)CCC3(CC2)OCCO3)cc1F [Example 21, 8-[3-Fluoro-4-((3S,6R)-3-methyl-1,1-dioxo-6-phenyl-[1,2]thiazinan-2-ylmethyl)-phenyl]-1,4-dioxa-spiro[4.5]decane-8-carbonitrile]
6 | 30 nM | C[C@H]1CC[C@H](c2ccccc2)S(=O)(=O)N1Cc1ccc(C2(C(N)=O)CCC3(CC2)OCCO3)cc1F [Example 22, 8-[3-Fluoro-4-((3S,6R)-3-methyl-1,1-dioxo-6-phenyl-[1,2]thiazinan-2-ylmethyl)-phenyl]-1,4-dioxa-spiro[4.5]decane-8-carboxylic acid amide]

— patent publication US10131644B2, “Aryl sultam derivatives as RORc modulators” (Genentech, Inc., priority 2014, dated 2018)
